In patent publication US20100063302A1, “CYCLIC SULFONIUM SALT, METHOD FOR PRODUCTION OF CYCLIC SULFONIUM SALT, AND GLYCOSIDASE INHIBITOR” (Takano Co., Ltd., priority 2007, published 2010):
In brackets after ≈: the same amount, converted by molar mass.

Experiments:
Format in all cases: biochemical
maltase = assay: α-glycosidase-inhibiting activity, maltase (small intestinal brush border membrane vesicles); conditions: substrate maltose (74 mM), 0.1 M maleic acid buffer pH 6.0, 37° C., 30 minutes, glucose-oxidase method
Protocol: (§1) The compounds (6a), (6b), (6c) and (6d), each prepared by Example 25, as well as the compound (6g) prepared by Example 27 were each measured for α-glycosidase-inhibiting activity. […] To each of sucrose (74 mM), maltose (74 mM) and isomaltose (74 mM) solution as a substrate, there was added a solution (0.05 ml) of a test compound in various concentrations, and the resulting mixture was pre-heated at 37° C. for 2 to 3 minutes, followed by addition of an enzyme solution and reaction for 30 minutes. Thereafter, water was added and the resulting mixture was heated in a boiling water bath for 2 minutes in order to inactivate the enzyme. Separately, the enzyme solution was added to each of the test solutions and immediately thereafter heated in boiling water bath for 2 minutes to inactivate the enzyme. This solution was used as a blank. The amount of […] D-glucose was measured in accordance with glucose-oxidase method. The substrate and test compounds were used in a solution of 0.1 M maleic acid buffer (pH 6.0). A 50% inhibitory concentration (IC50) was calculated from the value observed.

sucrase = molecular target: T1, sucrase (Homo sapiens, UniProt P14410); assay: α-glycosidase-inhibiting activity, sucrase (small intestinal brush border membrane vesicles); conditions: substrate sucrose (74 mM), 0.1 M maleic acid buffer pH 6.0, 37° C., 30 minutes, glucose-oxidase method
T1 construct: suspending small intestinal brush border membrane vesicles in 0.1 M maleic acid buffer (pH 6.0); from tissue; host or cells: small intestinal brush border membrane vesicles
Protocol: as §1

isomaltase = molecular target: T2, isomaltase (Homo sapiens, UniProt P14410); assay: α-glycosidase-inhibiting activity, isomaltase (small intestinal brush border membrane vesicles); conditions: substrate isomaltose (74 mM), 0.1 M maleic acid buffer pH 6.0, 37° C., 30 minutes, glucose-oxidase method
T2 construct: suspending small intestinal brush border membrane vesicles in 0.1 M maleic acid buffer (pH 6.0); from tissue; host or cells: small intestinal brush border membrane vesicles
Protocol: as §1

T1 sequence (P14410 whole entry, species assumed): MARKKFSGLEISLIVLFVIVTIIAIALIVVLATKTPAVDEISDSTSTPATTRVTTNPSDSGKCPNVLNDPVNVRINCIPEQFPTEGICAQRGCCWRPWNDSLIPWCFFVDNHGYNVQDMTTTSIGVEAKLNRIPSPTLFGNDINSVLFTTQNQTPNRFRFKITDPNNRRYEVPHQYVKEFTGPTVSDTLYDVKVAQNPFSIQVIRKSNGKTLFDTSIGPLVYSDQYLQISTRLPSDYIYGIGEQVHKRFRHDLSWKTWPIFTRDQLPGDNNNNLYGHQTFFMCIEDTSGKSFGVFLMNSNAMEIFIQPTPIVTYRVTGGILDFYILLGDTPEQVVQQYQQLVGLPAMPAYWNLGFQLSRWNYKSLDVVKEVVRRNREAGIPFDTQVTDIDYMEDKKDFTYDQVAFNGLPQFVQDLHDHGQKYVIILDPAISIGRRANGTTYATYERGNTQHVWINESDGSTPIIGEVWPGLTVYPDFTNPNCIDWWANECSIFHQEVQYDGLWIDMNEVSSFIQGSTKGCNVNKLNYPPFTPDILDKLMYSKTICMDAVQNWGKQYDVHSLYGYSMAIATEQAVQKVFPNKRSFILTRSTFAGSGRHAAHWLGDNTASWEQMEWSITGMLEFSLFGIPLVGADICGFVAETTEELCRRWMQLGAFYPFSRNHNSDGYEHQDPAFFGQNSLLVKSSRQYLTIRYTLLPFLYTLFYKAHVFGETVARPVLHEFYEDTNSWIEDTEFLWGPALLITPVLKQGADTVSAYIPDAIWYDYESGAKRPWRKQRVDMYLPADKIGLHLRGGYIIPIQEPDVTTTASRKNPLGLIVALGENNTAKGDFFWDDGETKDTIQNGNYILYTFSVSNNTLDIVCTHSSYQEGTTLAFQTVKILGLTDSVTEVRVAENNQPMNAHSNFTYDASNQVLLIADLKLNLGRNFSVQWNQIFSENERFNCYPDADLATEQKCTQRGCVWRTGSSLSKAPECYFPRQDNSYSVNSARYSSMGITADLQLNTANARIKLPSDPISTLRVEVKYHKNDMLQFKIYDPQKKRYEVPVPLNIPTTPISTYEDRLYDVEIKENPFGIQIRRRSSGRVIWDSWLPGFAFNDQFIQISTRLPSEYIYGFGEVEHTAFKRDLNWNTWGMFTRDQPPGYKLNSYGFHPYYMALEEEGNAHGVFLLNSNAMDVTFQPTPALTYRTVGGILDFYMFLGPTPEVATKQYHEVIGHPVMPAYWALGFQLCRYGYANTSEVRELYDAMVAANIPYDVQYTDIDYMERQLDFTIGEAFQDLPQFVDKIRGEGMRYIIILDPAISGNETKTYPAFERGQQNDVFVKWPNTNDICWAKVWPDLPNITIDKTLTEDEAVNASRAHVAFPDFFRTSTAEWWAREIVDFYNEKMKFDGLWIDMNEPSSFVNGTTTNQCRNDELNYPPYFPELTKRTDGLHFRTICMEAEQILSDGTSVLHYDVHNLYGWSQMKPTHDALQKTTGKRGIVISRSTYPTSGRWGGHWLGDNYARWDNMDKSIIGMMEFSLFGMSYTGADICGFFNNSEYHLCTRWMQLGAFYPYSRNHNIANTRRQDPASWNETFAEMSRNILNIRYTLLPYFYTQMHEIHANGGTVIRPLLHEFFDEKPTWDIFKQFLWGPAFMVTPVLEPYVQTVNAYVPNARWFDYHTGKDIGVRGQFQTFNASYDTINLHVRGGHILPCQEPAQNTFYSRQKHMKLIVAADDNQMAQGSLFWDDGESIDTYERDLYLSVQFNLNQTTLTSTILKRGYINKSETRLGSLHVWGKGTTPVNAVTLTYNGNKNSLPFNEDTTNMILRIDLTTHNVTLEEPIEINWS
T2 sequence (P14410 whole entry, species assumed): as above

O=S(=O)([O-])OC(C(O)C[S+]1CC(O)C(O)C1CO)C(O)C(O)C(O)CO (single isomer, unassigned) [Compound (6d)]
IC50, maltase (maltase): 24.8 µg/mL (≈ 58.4 µM) | IC50 (sucrase): 32.3 µM | IC50 (isomaltase): 6.53 µM

O=S(=O)([O-])OC(C(O)C[S+]1CC(O)C(O)C1CO)C(O)C(O)C(O)CO (single isomer, unassigned) [Compound (6a)]
IC50, maltase (maltase): 20.6 µg/mL (≈ 48.5 µM) | IC50 (sucrase): 66.9 µM | IC50 (isomaltase): 1.63 µM

O=S(=O)([O-])OC(C(O)C[S+]1CC(O)C(O)C1CO)C(O)C(O)C(O)CO (single isomer, unassigned) [Compound (6b)]
IC50, maltase (maltase): >100 µg/mL | IC50 (sucrase): 136 µM | IC50 (isomaltase): 10.8 µM

O=S(=O)([O-])OC(C(O)C[S+]1CC(O)C(O)C1CO)C(O)C(O)C(O)CO (single isomer, unassigned) [Compound (6g)]
IC50, maltase (maltase): >100 µg/mL | IC50 (sucrase): > 236 µM | IC50 (isomaltase): 158 µM

O=S(=O)([O-])OC(C(O)C[S+]1CC(O)C(O)C1CO)C(O)C(O)C(O)CO (single isomer, unassigned) [kotalanol, reference compound]
IC50, maltase (maltase): 3.07 µg/mL (≈ 7.23 µM) | IC50 (sucrase): 0.754 µM | IC50 (isomaltase): 5.68 µM

O=S(=O)([O-])OC(C(O)C[S+]1CC(O)C(O)C1CO)C(O)C(O)C(O)CO (stereo not drawn) [Compound (6c)]
IC50, maltase (maltase): >100 µg/mL | IC50 (sucrase): 214 µM | IC50 (isomaltase): 16.2 µM
